Assay results from patent US20250100998A1, “PARP7 INHIBITORS” (Gilead Sciences, Inc., priority 2023, published 2025).

Each compound was assayed on STAT1 (phosphorylated at Tyr701) in NCI-H1373 cells (assay: Phospho-STAT1 (Tyr701) LANCE Ultra TR-FRET detection assay). Conditions: Homo sapiens, NCI-H1373, 48 h, induction of pSTAT1 in NCI-H1373 cells, 48 hours incubation; normalized to 10 uM positive control and DMSO; 4-parameter fit; read-out: NH1373 pSTAT1 EC50.
Format: cell-based
Experimental: Phospho-STAT1 (Tyr701 LANCE Ultra TR-FRET Detection Assay
LANCE Ultra phospho-STAT1 (Tyr701) kits are designed for the detection of phosphorylated STAT1 in cell lysates using a simple, homogeneous LANCE Ultra sandwich assay (Cat. #TRF4028M). This assay is intended for assessing compound induction of endogenous levels of cellular STAT1 (phosphorylated at Tyr701) in NCI-H1373 cells. The NCI-H1373 cells are cultured in RPMI 1640 media containing 10% heat inactivated FBS, GlutaMAX, 1% Penicillin-Streptomycin. An Echo acoustic liquid handler is used to transfer 60 nanoliters of compound dilutions using the Echo Qualified, 384-well polypropylene microplate clear flat bottom source plates into a Greiner (#781080) cell culture microplate. NCI-H1373 cells are seeded into these compound-spotted culture plates at 30,000 cells/well in a 60 uL volume in growth media. The plates are incubated in a 5% CO2 humidified incubator at 37° C. for 48 hours. […] Briefly, […] of supplemented lysis buffer is added to each well and allowed to shake for 1 hour at 400 rpm. Next, 5 ul of remixed antibody solutions (vol/vol) prepared in detection buffer are added to each well and allowed to incubate at room temperature overnight. After spinning the plate down at 300 rpm for 1 min, the plate is read on an EnVision plate reader set up for Eu3+ Cryptate and fluorescence emission is measured at two different wavelengths (665 nm and 620 nm). The HTRF ratio is then calculated ([…]) for each well to determine the amount of pSTAT1 in the cell lysate, and the data is then normalized to 10 uM (S)-5-((1-(3-oxo-3-(4-(5-(trifluoromethyl)pyrimidin-2-yl)piperazin-1-yl)propoxy)propan-2-yl)amino)-4-(trifluoromethyl)pyridazin-3(2H)-one positive and DMSO negative controls. The values were then plotted as a function of compound concentration and a 4-parameter fit was applied to derive the EC50 values.
Compound `[2H]C([2H])([2H])Oc1cnc(-c2cc3ncn(C[C@@H]4CCC[C@H](Nc5cn[nH]c(=O)c5C(F)(F)F)C4)c(=O)c3cc2F)nc1` [Example 26, 6-fluoro-7-(5-(methoxy-d3)pyrimidin-2-yl)-3-(((1R,3S)-3-((6-oxo-5-(trifluoromethyl)-1,6-dihydropyridazin-4-yl)amino)cyclohexyl)methyl)quinazolin-4(3H)-one] has an EC50 of 5.63 nM.
`CC(O)(c1cnc(-c2cc3ccn(C[C@@H]4CCC[C@H](Nc5cn[nH]c(=O)c5C(F)(F)F)C4)c(=O)c3cc2F)nc1)C(F)F` (stereo partly drawn) [Example 27, 6-(5-(1,1-difluoro-2-hydroxypropan-2-yl)pyrimidin-2-yl)-7-fluoro-2-(((1R,3S)-3-((6-oxo-5-(trifluoromethyl)-1,6-dihydropyridazin-4-yl)amino)cyclohexyl)methyl)isoquinolin-1(2H)-one] was tested, and the EC50 was 16.8 nM.
For `CC(O)(c1cnc(-c2cc3ccn(C[C@@H]4CCC[C@H](Nc5cn[nH]c(=O)c5C(F)(F)F)C4)c(=O)c3c(F)c2F)nc1)C(F)F` (stereo partly drawn) [Example 28, 6-(5-(1,1-difluoro-2-hydroxypropan-2-yl)pyrimidin-2-yl)-7,8-difluoro-2-(((1R,3S)-3-((6-oxo-5-(trifluoromethyl)-1,6-dihydropyridazin-4-yl)amino)cyclohexyl)methyl)isoquinolin-1(2H)-one], the EC50 was 5.84 nM.
With `N#Cc1cnc(-c2cc3ccn(C[C@@H]4CCC[C@H](Nc5cn[nH]c(=O)c5C(F)(F)F)C4)c(=O)c3c(F)c2F)nc1` [Example 29, 2-(7,8-difluoro-1-oxo-2-(((1R,3S)-3-((6-oxo-5-(trifluoromethyl)-1,6-dihydropyridazin-4-yl)amino)cyclohexyl)methyl)-1,2-dihydroisoquinolin-6-yl)pyrimidine-5-carbonitrile] the EC50 was 1.8 nM.
Work on `O=c1[nH]ncc(N[C@H]2CCC[C@@H](Cn3cc(F)c4cc(-c5nc6ccccn6n5)c(F)cc4c3=O)C2)c1C(F)(F)F` [Example 32, 6-([1,2,4]triazolo[1,5-a]pyridin-2-yl)-4,7-difluoro-2-(((1R,3S)-3-((6-oxo-5-(trifluoromethyl)-1,6-dihydropyridazin-4-yl)amino)cyclohexyl)methyl)isoquinolin-1(2H)-one] yielded an EC50 of 1.53 nM.
Work on `O=c1[nH]ncc(N[C@H]2CCC[C@@H](Cn3cc(F)c4cc(-c5ncc(C(F)(F)F)cn5)c(F)c(F)c4c3=O)C2)c1C(F)(F)F` [Example 33, 4,7,8-trifluoro-2-(((1R,3S)-3-((6-oxo-5-(trifluoromethyl)-1,6-dihydropyridazin-4-yl)amino)cyclohexyl)methyl)-6-(5-(trifluoromethyl)pyrimidin-2-yl)isoquinolin-1(2H)-one] yielded an EC50 of 1.51 nM.
`O=c1[nH]ncc(N[C@H]2CCC[C@@H](Cn3cc(F)c4cc(-c5ncc(C(F)F)cn5)c(F)c(F)c4c3=O)C2)c1C(F)(F)F` [Example 34, 6-(5-(difluoromethyl)pyrimidin-2-yl)-4,7,8-trifluoro-2-(((1R,3S)-3-((6-oxo-5-(trifluoromethyl)-1,6-dihydropyridazin-4-yl)amino)cyclohexyl)methyl)isoquinolin-1(2H)-one] gave an EC50 of 0.952 nM.
`COc1cnc(-c2cc3c(F)cn(C[C@@H]4CCC[C@H](Nc5cn[nH]c(=O)c5C(F)(F)F)C4)c(=O)c3c(F)c2F)nc1` [Example 35, 4,7,8-trifluoro-6-(5-methoxypyrimidin-2-yl)-2-(((1R,3S)-3-((6-oxo-5-(trifluoromethyl)-1,6-dihydropyridazin-4-yl)amino)cyclohexyl)methyl)isoquinolin-1(2H)-one] showed an EC50 of 1.45 nM.
With `O=c1[nH]ncc(N[C@H]2CCC[C@@H](Cn3cc(F)c4cc(-c5ncc(OCCO)cn5)c(F)c(F)c4c3=O)C2)c1C(F)(F)F` [Example 36, 4,7,8-trifluoro-6-(5-(2-hydroxyethoxy)pyrimidin-2-yl)-2-(((1R,3S)-3-((6-oxo-5-(trifluoromethyl)-1,6-dihydropyridazin-4-yl)amino)cyclohexyl)methyl)isoquinolin-1(2H)-one] the EC50 was 4.21 nM.
`CC(C)(O)c1cnc(-c2cc3c(F)cn(C[C@@H]4CCC[C@H](Nc5cn[nH]c(=O)c5C(F)(F)F)C4)c(=O)c3c(F)c2F)nc1` [Example 37, 4,7,8-trifluoro-6-(5-(2-hydroxypropan-2-yl)pyrimidin-2-yl)-2-(((1R,3S)-3-((6-oxo-5-(trifluoromethyl)-1,6-dihydropyridazin-4-yl)amino)cyclohexyl)methyl)isoquinolin-1(2H)-one] showed an EC50 of 2.48 nM.
`O=c1[nH]ncc(N[C@H]2CCC[C@@H](Cn3cc(F)c4cc(-c5ncc(OCCO)cn5)c(F)cc4c3=O)C2)c1C(F)(F)F` [Example 38] was tested, and the EC50 was 12.5 nM.
Compound `CC(C)(O)c1cnc(-c2cc3c(F)cn(C[C@@H]4CCC[C@H](Nc5cn[nH]c(=O)c5C(F)(F)F)C4)c(=O)c3cc2F)nc1` [Example 39] has an EC50 of 4.2 nM.
`CS(=O)(=O)c1cnc(-c2cc3c(F)cn(C[C@@H]4CCC[C@H](Nc5cn[nH]c(=O)c5C(F)(F)F)C4)c(=O)c3cc2F)nc1` [Example 40, 4,7-difluoro-6-(5-methylsulfonylpyrimidin-2-yl)-2-[[(1R,3S)-3-[[6-oxo-5-(trifluoromethyl)-1H-pyridazin-4-yl]amino]cyclohexyl]methyl]isoquinolin-1-one] gave an EC50 of 16.3 nM.
`CS(=O)(=O)c1cnc(-c2cc3c(F)cn(C[C@@H]4CCC[C@H](Nc5cn[nH]c(=O)c5C(F)(F)F)C4)c(=O)c3c(F)c2F)nc1` [Example 41] gave an EC50 of 3.25 nM.
`CC(F)(F)c1cnc(-c2cc3c(F)cn(C[C@@H]4CCC[C@H](Nc5cn[nH]c(=O)c5C(F)(F)F)C4)c(=O)c3cc2F)nc1` [Example 42] showed an EC50 of 2.45 nM.
Work on `CC(F)(F)c1cnc(-c2cc3c(F)cn(C[C@@H]4CCC[C@H](Nc5cn[nH]c(=O)c5C(F)(F)F)C4)c(=O)c3c(F)c2F)nc1` [Example 43] yielded an EC50 of 2.6 nM.
Compound `O=c1[nH]ncc(N[C@H]2CCC[C@@H](Cn3cc(F)c4cc(-c5ncc(OC(F)(F)F)cn5)c(F)c(F)c4c3=O)C2)c1C(F)(F)F` [Example 44, 4,7,8-trifluoro-2-[[(1R,3S)-3-[[6-oxo-5-(trifluoromethyl)-1H-pyridazin-4-yl]amino]cyclohexyl]methyl]-6-[5-(trifluoromethoxy)pyrimidin-2-yl]isoquinolin-1-one] has an EC50 of 4.17 nM.
For `[2H]C([2H])([2H])Oc1cnc(-c2cc3c(F)cn(C[C@@H]4CCC[C@H](Nc5cn[nH]c(=O)c5C(F)(F)F)C4)c(=O)c3cc2F)nc1` [Example 45, 4,7-difluoro-2-[[(1R,3S)-3-[[6-oxo-5-(trifluoromethyl)-1H-pyridazin-4-yl]amino]cyclohexyl]methyl]-6-[5-(trideuteriomethoxy)pyrimidin-2-yl]isoquinolin-1-one], the EC50 was 10.5 nM.
With `[2H]C([2H])([2H])Oc1cnc(-c2cc3c(F)cn(C[C@@H]4CCC[C@H](Nc5cn[nH]c(=O)c5C(F)(F)F)C4)c(=O)c3c(F)c2F)nc1` [Example 46, 4,7,8-trifluoro-2-[[(1R,3S)-3-[[6-oxo-5-(trifluoromethyl)-1H-pyridazin-4-yl]amino]cyclohexyl]methyl]-6-[5-(trideuteriomethoxy)pyrimidin-2-yl]isoquinolin-1-one] the EC50 was 1.19 nM.
`O=c1[nH]ncc(N[C@H]2CCC[C@@H](Cn3ccc4cc(-c5ncc(OCCO)cn5)c(F)c(F)c4c3=O)C2)c1C(F)(F)F` [Example 47, 7,8-difluoro-6-(5-(2-hydroxyethoxy)pyrimidin-2-yl)-2-(((1R,3S)-3-((6-oxo-5-(trifluoromethyl)-1,6-dihydropyridazin-4-yl)amino)cyclohexyl)methyl)isoquinolin-1(2H)-one] gave an EC50 of 4.86 nM.
Work on `CC(C)(O)c1cnc(-c2cc3c(F)cn(C[C@@H]4CCC[C@H](Oc5cn[nH]c(=O)c5C(F)(F)F)C4)c(=O)c3c(F)c2F)nc1` [Example 48, 4,7,8-trifluoro-6-(5-(2-hydroxypropan-2-yl)pyrimidin-2-yl)-2-(((1R,3S)-3-((6-oxo-5-(trifluoromethyl)-1,6-dihydropyridazin-4-yl)oxy)cyclohexyl)methyl)isoquinolin-1(2H)-one] yielded an EC50 of 1.03 nM.
Work on `O=c1[nH]ncc(O[C@H]2CCC[C@@H](Cn3cc(F)c4cc(-c5ncc(OC(F)(F)F)cn5)c(F)c(F)c4c3=O)C2)c1C(F)(F)F` [Example 49, 4,7,8-trifluoro-2-(((1R,3S)-3-((6-oxo-5-(trifluoromethyl)-1,6-dihydropyridazin-4-yl)oxy)cyclohexyl)methyl)-6-(5-(trifluoromethoxy)pyrimidin-2-yl)isoquinolin-1(2H)-one] yielded an EC50 of 4.89 nM.
For `O=c1[nH]ncc(O[C@H]2CCC[C@@H](Cn3cc(F)c4cc(-c5ncc(OC(F)F)cn5)c(F)c(F)c4c3=O)C2)c1C(F)(F)F` [Example 50, 6-(5-(difluoromethoxy)pyrimidin-2-yl)-4,7,8-trifluoro-2-(((1R,3S)-3-((6-oxo-5-(trifluoromethyl)-1,6-dihydropyridazin-4-yl)oxy)cyclohexyl)methyl)isoquinolin-1(2H)-one], the EC50 was 1.29 nM.
